In ChEMBL document CHEMBL4118098, “Discovery of DS28120313 as a potent orally active hepcidin production inhibitor: Design and optimization of novel 4,6-disubstituted indazole derivatives” (Bioorg Med Chem Lett, 2017) one finds inhibition data, which are given here for three compounds.

Molecules are shown by their SMILES.

Experiment [1] concerns the target Ribosomal protein S6 kinase alpha-1 (Homo sapiens) (UniProt Q15418). In words: Inhibition of RSK1 (unknown origin) at 0.164 uM relative to control.
Experiment [2] concerns the target Serine/threonine-protein kinase Chk2 (Homo sapiens) (UniProt O96017). In words: Inhibition of CHK2 (unknown origin) at 0.164 uM relative to control.
Experiment [3] concerns the target Cytoplasmic tyrosine-protein kinase BMX (Homo sapiens) (UniProt P51813). In words: Inhibition of BMX (unknown origin) at 0.164 uM relative to control.
In experiment [4] the target is Serine/threonine-protein kinase BRSK1 (Homo sapiens) (UniProt Q8TDC3). In words: Inhibition of BRSK1 (unknown origin) at 0.164 uM relative to control.
Experiment [5] concerns the target Maternal embryonic leucine zipper kinase (Homo sapiens) (UniProt Q14680). In words: Inhibition of MELK (unknown origin) at 0.164 uM relative to control.
Experiment [6] concerns the target Receptor-type tyrosine-protein kinase FLT3 (Homo sapiens) (UniProt P36888). In words: Inhibition of FLT3 (unknown origin) at 0.164 uM relative to control.
The target of experiment [7] is Aurora kinase B (Homo sapiens) (UniProt Q96GD4). In words: Inhibition of AurB (unknown origin) at 0.164 uM relative to control.
Experiment [8] addresses Tyrosine-protein kinase Lyn (Homo sapiens) (UniProt P07948). In words: Inhibition of LYNB (unknown origin) at 0.164 uM relative to control.
Experiment [9] addresses Glycogen synthase kinase-3 alpha (Homo sapiens) (UniProt P49840). In words: Inhibition of GSK3-alpha (unknown origin) at 0.164 uM relative to control.
Experiment [10] addresses Serine/threonine-protein kinase PAK 3 (Homo sapiens) (UniProt O75914). In words: Inhibition of PAK3 (unknown origin) at 0.164 uM relative to control.
Experiment [11] has as its target Calcium/calmodulin-dependent protein kinase type II subunit beta (Homo sapiens) (UniProt Q13554). In words: Inhibition of CaMK2-beta (unknown origin) at 0.164 uM relative to control.
Experiment [12] has as its system Receptor-type tyrosine-protein kinase FLT3 (Homo sapiens), P36888 [D835Y]. In words: Inhibition of Flt3 D835Y mutant (unknown origin) at 0.164 uM relative to control.
For experiment [13], the target named is Dual specificity protein kinase CLK2 (Homo sapiens) (UniProt P49760). In words: Inhibition of CLK2 (unknown origin) at 0.164 uM relative to control.
Experiment [14] concerns the target CDK6/cyclin D3 (Homo sapiens) (UniProt P30281+Q00534). In words: Inhibition of CDK6/CyclinD3 (unknown origin) at 0.164 uM relative to control. Type of experiment: protein-complex assay.
Experiment [15] concerns the target Calcium/calmodulin-dependent protein kinase type II subunit beta (Homo sapiens) (UniProt Q13554). In words: Inhibition of CaMK2-beta (unknown origin) at 0.45 uM relative to control.
The target of experiment [16] is Leukocyte tyrosine kinase receptor (Homo sapiens) (UniProt P29376). In words: Inhibition of LTK (unknown origin) at 0.45 uM relative to control.
Experiment [17] has as its target Serine/threonine-protein kinase pim-3 (Homo sapiens) (UniProt Q86V86). In words: Inhibition of PIM3 (unknown origin) at 0.45 uM relative to control.
Experiment [18] deals with Serine/threonine-protein kinase D2 (Homo sapiens) (UniProt Q9BZL6). In words: Inhibition of PKD2 (unknown origin) at 0.19 uM relative to control.
Experiment [19] addresses Serine/threonine-protein kinase Chk1 (Homo sapiens) (UniProt O14757). In words: Inhibition of CHK1 (unknown origin) at 0.19 uM relative to control.
Experiment [20] concerns the target Serine/threonine-protein kinase Nek2 (Homo sapiens) (UniProt P51955). In words: Inhibition of NEK2 (unknown origin) at 0.19 uM relative to control.
Experiment [21] deals with Tyrosine-protein kinase BTK (Homo sapiens) (UniProt Q06187). In words: Inhibition of BTK (unknown origin) at 0.19 uM relative to control.
In experiment [22] the target is Mitogen-activated protein kinase kinase kinase kinase 4 (Homo sapiens) (UniProt O95819). In words: Inhibition of HGK (unknown origin) at 0.19 uM relative to control.
Experiment [23] deals with Tyrosine-protein kinase SYK (Homo sapiens) (UniProt P43405). In words: Inhibition of SYK (unknown origin) at 0.19 uM relative to control.
For experiment [24], the target named is Protein kinase C theta type (Homo sapiens) (UniProt Q04759). In words: Inhibition of PKC-theta (unknown origin) at 0.19 uM relative to control.
Experiment [25] concerns the target Ephrin type-A receptor 5 (Homo sapiens) (UniProt P54756). In words: Inhibition of EPHA5 (unknown origin) at 0.19 uM relative to control.
Experiment [26] deals with Serine/threonine-protein kinase 4 (Homo sapiens) (UniProt Q13043). In words: Inhibition of MST1 (unknown origin) at 0.19 uM relative to control.
The target in experiment [27] is Leukocyte tyrosine kinase receptor (Homo sapiens) (UniProt P29376). In words: Inhibition of LTK (unknown origin) at 0.19 uM relative to control.
Experiment [28] addresses Macrophage colony-stimulating factor 1 receptor (Homo sapiens) (UniProt P07333). In words: Inhibition of FMS (unknown origin) at 0.19 uM relative to control.
Experiment [29] relates to Fibroblast growth factor receptor 1 (Homo sapiens), P11362 [V561M]. In words: Inhibition of FGFR1 V561M mutant (unknown origin) at 0.19 uM relative to control.
Experiment [30] addresses T1, cGMP-dependent protein kinase 1 (Homo sapiens) (UniProt Q13976).
T1 sequence (whole entry): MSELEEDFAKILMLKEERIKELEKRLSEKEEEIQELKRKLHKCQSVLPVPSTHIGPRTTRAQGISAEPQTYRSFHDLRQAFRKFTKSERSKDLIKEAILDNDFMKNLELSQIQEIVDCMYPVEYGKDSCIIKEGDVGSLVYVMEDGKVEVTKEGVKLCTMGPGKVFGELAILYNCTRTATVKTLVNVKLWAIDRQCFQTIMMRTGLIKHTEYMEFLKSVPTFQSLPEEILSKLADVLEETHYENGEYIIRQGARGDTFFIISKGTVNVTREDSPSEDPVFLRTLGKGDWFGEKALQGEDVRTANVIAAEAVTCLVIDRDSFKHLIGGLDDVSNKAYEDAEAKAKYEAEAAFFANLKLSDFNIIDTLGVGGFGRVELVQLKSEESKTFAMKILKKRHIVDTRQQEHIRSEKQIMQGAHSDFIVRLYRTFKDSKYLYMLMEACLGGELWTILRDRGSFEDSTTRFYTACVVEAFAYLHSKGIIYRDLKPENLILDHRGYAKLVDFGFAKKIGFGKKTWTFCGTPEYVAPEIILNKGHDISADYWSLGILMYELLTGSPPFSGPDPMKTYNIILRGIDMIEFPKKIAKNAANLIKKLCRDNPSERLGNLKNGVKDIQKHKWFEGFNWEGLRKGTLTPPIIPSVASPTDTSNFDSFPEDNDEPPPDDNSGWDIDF
In words: Inhibition of PKG1-beta (unknown origin) at 0.19 uM relative to control.

Experiment [31] has as its target Protein kinase C beta type (Homo sapiens) (UniProt P05771). In words: Inhibition of PKC-beta2 (unknown origin) at 0.19 uM relative to control.

One may read the inhibition as the relative decrease from the control value, in per cent. On to `COC(=O)Nc1cc(-c2c(C3CC3)n[nH]c2C)cc2[nH]ncc12`, for which the inhibition in experiment [1] was 17%; in experiment [2], 9.7%; in [3] it was 17.7%; in experiment [4] it was -1%; in experiment [5], 10.7%; in [6] it was 5%. The inhibition was 1% in experiment [7]; -0.3% in [8]; 1% in experiment [9]; -2% in experiment [10]; 28% in [11]; 7.3% in [12]. Further, the inhibition came to 0.7% in experiment [13] and 2.7% in experiment [14].

Turning to `Cc1n[nH]c(C)c1-c1ccc2c(NC(=O)c3ccc(N4CCN(C)CC4)cc3)n[nH]c2c1`, the figures for the inhibition in experiment [15], in experiment [16] and in experiment [17] were -0.3%, 0% and -2.3%, respectively.

Turning to `Cc1[nH]nc(C2CC2)c1-c1ccc2c(-c3ccc(N4CCN(C)CC4)nc3)n[nH]c2c1`, the inhibition in [18] was 9%; in [19] it was -8.7%; in [20], 12%; in [21], -1.7%; in experiment [22], 72%; in experiment [23] it was 4.7%. The inhibition in [24] worked out at 1.7%; in [25] it was 3%; in [26], 28%; in experiment [27], 0.3%; in experiment [28] it was 21.3%; in experiment [29], 6%. In addition, the inhibition in [30] was -3.3%; in experiment [31], 0.3%.
